# Data from US12559492B2, “BRAF degraders” (C4 Therapeutics, Inc., priority 2020, dated 2026).
# Target: BRAF^V600E protein (Homo sapiens, UniProt P15056, V600E)
# Experiment: HiBiT cellular BRAF V600E degradation assay
# Type: cell-based
# Conditions: 24 h incubation; for DC50: A375.10 cells (HiBiT tag knocked in at N-terminal of BRAF V600E), concentration at which 50% of total cellular BRAF V600E is degraded; for Emax: A375.10 cells, Emax = amount of residual protein remaining in the cell after compound treatment, read-out: HiBit 24 h Emax
# Sequence of BRAF^V600E protein (P15056 whole entry V600E): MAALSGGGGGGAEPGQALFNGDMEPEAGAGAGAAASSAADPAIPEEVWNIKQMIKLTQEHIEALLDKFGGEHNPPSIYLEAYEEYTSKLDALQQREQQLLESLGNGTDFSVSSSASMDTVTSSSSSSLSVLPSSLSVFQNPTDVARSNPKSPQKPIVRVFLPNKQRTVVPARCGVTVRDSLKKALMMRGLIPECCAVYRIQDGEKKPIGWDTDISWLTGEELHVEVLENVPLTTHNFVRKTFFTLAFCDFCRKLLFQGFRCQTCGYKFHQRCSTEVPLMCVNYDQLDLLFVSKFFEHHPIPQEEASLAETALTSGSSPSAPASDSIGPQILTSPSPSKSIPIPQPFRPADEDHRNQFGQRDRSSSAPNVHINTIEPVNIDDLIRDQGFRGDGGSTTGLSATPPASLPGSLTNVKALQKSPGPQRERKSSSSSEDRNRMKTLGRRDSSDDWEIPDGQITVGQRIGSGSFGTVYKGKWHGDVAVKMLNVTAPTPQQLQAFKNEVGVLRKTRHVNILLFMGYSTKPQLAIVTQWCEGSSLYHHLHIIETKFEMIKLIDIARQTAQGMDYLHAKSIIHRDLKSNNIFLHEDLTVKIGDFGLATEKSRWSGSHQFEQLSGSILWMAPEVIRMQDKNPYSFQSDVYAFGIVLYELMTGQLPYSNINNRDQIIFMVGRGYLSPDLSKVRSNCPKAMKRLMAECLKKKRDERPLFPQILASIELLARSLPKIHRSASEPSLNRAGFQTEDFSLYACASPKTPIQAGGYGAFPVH
Compound,DC50,Emax
"CCN(C)S(=O)(=O)Nc1cccc(C(=O)c2c[nH]c3ncc(-c4ccc(N5CCN(C(=O)CC6(O)CCN(c7ccc(NC8CCC(=O)NC8=O)cc7)CC6)CC5)cc4)cc23)c1F (centres unmarked) [Example 116, 5-[4-[4-[2-[1-[4-[(2,6-dioxo-3-piperidyl)amino]phenyl]-4-hydroxy-4-piperidyl]acetyl]piperazin-1-yl]phenyl]-3-[3-[[ethyl(methyl)sulfamoyl]amino]-2-fluoro-benzoyl]-1H-pyrrolo[2,3-b]pyridine]",5.32 nM,13.4%
"CCN(C)S(=O)(=O)Nc1ccc(F)c(C(=O)c2c[nH]c3ncc(-c4cnc(N5CCN(C(=O)CN6CCC(c7ccc(NC8CCC(=O)NC8=O)cc7)CC6)CC5)nc4)cc23)c1C (centres unmarked) [Example 123, 5-[2-[4-[2-[4-[4-[(2,6-dioxo-3-piperidyl)amino]phenyl]-1-piperidyl]acetyl]piperazin-1-yl]pyrimidin-5-yl]-3-[3-[[ethyl(methyl)sulfamoyl]amino]-6-fluoro-2-methyl-benzoyl]-1H-pyrrolo[2,3-b]pyridine]",46.4 nM,11.7%
"CCN(C)S(=O)(=O)Nc1ccc(F)c(C(=O)c2c[nH]c3ncc(-c4cnc(N5CCC(C(=O)N6CCC(c7ccc(NC8CCC(=O)NC8=O)cc7)CC6)CC5)nc4)cc23)c1F (centres unmarked) [Example 127, 5-[2-[4-[4-[4-[(2,6-dioxo-3-piperidyl)amino]phenyl]piperidine-1-carbonyl]-1-piperidyl]pyrimidin-5-yl]-3-[3-[[ethyl(methyl)sulfamoyl]amino]-2,6-difluoro-benzoyl]-1H-pyrrolo[2,3-b]pyridine]",13.2 nM,7.62%
"CCN(C)S(=O)(=O)Nc1ccc(F)c(C(=O)c2c[nH]c3ncc(-c4cnc(N5CCC(C(=O)NC6CCN(c7ccc(NC8CCC(=O)NC8=O)cc7F)CC6)CC5)nc4)cc23)c1F (centres unmarked) [Example 128, N-[1-[4-[(2,6-dioxo-3-piperidyl)amino]-2-fluoro-phenyl]-4-piperidyl]-1-[5-[3-[3-[[ethyl(methyl)sulfamoyl]amino]-2,6-difluoro-benzoyl]-1H-pyrrolo[2,3-b]pyridin-5-yl]pyrimidin-2-yl]piperidine-4-carboxamide]",20.9 nM,14.6%
"CCN(C)S(=O)(=O)Nc1ccc(F)c(C(=O)c2c[nH]c3ncc(-c4cnc(N5CC[C@@H](C(=O)N6CCC(c7ccc(NC8CCC(=O)NC8=O)cc7)CC6)C5)nc4)cc23)c1F (stereo partly drawn) [Example 129, 5-[2-[(3R)-3-[4-[4-[(2,6-dioxo-3-piperidyl)amino]phenyl]piperidine-1-carbonyl]pyrrolidin-1-yl]pyrimidin-5-yl]-3-[3-[[ethyl(methyl)sulfamoyl]amino]-2,6-difluoro-benzoyl]-1H-pyrrolo[2,3-b]pyridine]",5.11 nM,13.8%

# The remaining compounds from weak to strong by DC50, led by results:
DC50,Emax,Compound
27.2 nM,13.4%,"CCN(C)S(=O)(=O)Nc1cccc(C(=O)c2c[nH]c3ncc(-c4ccc(N5CCN(C(=O)CC6(O)CCN(c7ccc(NC8CCC(=O)NC8=O)cc7F)C6)CC5)cc4)cc23)c1F (centres unmarked) [Example 118, 5-[4-[4-[2-[1-[4-[(2,6-dioxo-3-piperidyl)amino]-2-fluoro-phenyl]-3-hydroxy-pyrrolidin-3-yl]acetyl]piperazin-1-yl]phenyl]-3-[3-[[ethyl(methyl)sulfamoyl]amino]-2-fluoro-benzoyl]-1H-pyrrolo[2,3-b]pyridine]"
23.1 nM,25.3%,"CCN(C)S(=O)(=O)Nc1cccc(C(=O)c2c[nH]c3ncc(-c4ccc(N5CCN(C(=O)CC6(O)CCN(c7ccc(NC8CCC(=O)NC8=O)cn7)CC6)CC5)cc4)cc23)c1F (centres unmarked) [Example 117, 5-[4-[4-[2-[1-[5-[(2,6-dioxo-3-piperidyl)amino]-2-pyridyl]-4-hydroxy-4-piperidyl]acetyl]piperazin-1-yl]phenyl]-3-[3-[[ethyl(methyl)sulfamoyl]amino]-2-fluoro-benzoyl]-1H-pyrrolo[2,3-b]pyridine]"
22.1 nM,13%,"CCN(C)S(=O)(=O)Nc1ccc(F)c(C(=O)c2c[nH]c3ncc(C#CC4CCN(C(=O)CN5CCC(c6ccc(NC7CCC(=O)NC7=O)cc6F)CC5)CC4)cc23)c1F (centres unmarked) [Example 124, 5-[2-[1-[2-[4-[4-[(2,6-dioxo-3-piperidyl)amino]-2-fluoro-phenyl]-1-piperidyl]acetyl]-4-piperidyl]ethynyl]-3-[3-[[ethyl(methyl)sulfamoyl]amino]-2,6-difluoro-benzoyl]-1H-pyrrolo[2,3-b]pyridine]"
8.71 nM,10.5%,"CCN(C)S(=O)(=O)Nc1cccc(C(=O)c2c[nH]c3ncc(-c4ccc(N5CCN(C(=O)CC6(O)CCN(c7ccc(NC8CCC(=O)NC8=O)cc7F)CC6)CC5)cc4)cc23)c1F (centres unmarked) [Example 119, 5-[4-[4-[2-[1-[4-[(2,6-dioxo-3-piperidyl)amino]-2-fluoro-phenyl]-4-hydroxy-4-piperidyl]acetyl]piperazin-1-yl]phenyl]-3-[3-[[ethyl(methyl)sulfamoyl]amino]-2-fluoro-benzoyl]-1H-pyrrolo[2,3-b]pyridine]"
5.13 nM,12.2%,"CCN(C)S(=O)(=O)Nc1cccc(C(=O)c2c[nH]c3ncc(-c4ccc(N5CCN(C(=O)CC6(O)CCN(c7ncc(NC8CCC(=O)NC8=O)cc7F)CC6)CC5)nc4)cc23)c1F (centres unmarked) [Example 115, 5-[6-[4-[2-[1-[5-[(2,6-dioxo-3-piperidyl)amino]-3-fluoro-2-pyridyl]-4-hydroxy-4-piperidyl]acetyl]piperazin-1-yl]-3-pyridyl]-3-[3-[[ethyl(methyl)sulfamoyl]amino]-2-fluoro-benzoyl]-1H-pyrrolo[2,3-b]pyridine]"
2.87 nM,9.99%,"CCN(C)S(=O)(=O)Nc1cccc(C(=O)c2c[nH]c3ncc(-c4ccc(N5CCN(C(=O)CC6(O)CCN(c7ncc(NC8CCC(=O)NC8=O)cc7F)CC6)CC5)cc4)cc23)c1F (centres unmarked) [Example 120, 5-[4-[4-[2-[1-[5-[(2,6-dioxo-3-piperidyl)amino]-3-fluoro-2-pyridyl]-4-hydroxy-4-piperidyl]acetyl]piperazin-1-yl]phenyl]-3-[3-[[ethyl(methyl)sulfamoyl]amino]-2-fluoro-benzoyl]-1H-pyrrolo[2,3-b]pyridine]"
2.3 nM,4.98%,"CCN(C)S(=O)(=O)Nc1ccc(F)c(C(=O)c2c[nH]c3ncc(-c4cnc(N5CCN(C(=O)CN6CCC(c7ccc(NC8CCC(=O)NC8=O)cc7)CC6)CC5)nc4)cc23)c1Cl (centres unmarked) [Example 121, 3-[2-chloro-3-[[ethyl(methyl)sulfamoyl]amino]-6-fluoro-benzoyl]-5-[2-[4-[2-[4-[4-[(2,6-dioxo-3-piperidyl)amino]phenyl]-1-piperidyl]acetyl]piperazin-1-yl]pyrimidin-5-yl]-1H-pyrrolo[2,3-b]pyridine]"
2.29 nM,10.9%,"CCN(C)S(=O)(=O)Nc1cccc(C(=O)c2c[nH]c3ncc(-c4ccc(N5CCN(C(=O)CC6(O)CCN(c7ccc(NC8CCC(=O)NC8=O)cc7F)C6)CC5)nc4)cc23)c1F (centres unmarked) [Example 114, 5-[6-[4-[2-[1-[4-[(2,6-dioxo-3-piperidyl)amino]-2-fluoro-phenyl]-3-hydroxy-pyrrolidin-3-yl]acetyl]piperazin-1-yl]-3-pyridyl]-3-[3-[[ethyl(methyl)sulfamoyl]amino]-2-fluoro-benzoyl]-1H-pyrrolo[2,3-b]pyridine]"
